The text below walks through data of ChEMBL document CHEMBL3091337, “Novel piperidinylamino-diarylpyrimidine derivatives with dual structural conformations as potent HIV-1 non-nucleoside reverse transcriptase inhibitors” (Bioorg Med Chem Lett, 2013).

Data set [1] is described as follows: Selectivity index, ratio of CC50 for human MT4 cells to EC50 for drug-resistant HIV1 RES056 harboring reverse transcriptase K103N/Y181C double mutant. The note with it: read-out: Ratio CC50/EC50. The class given is toxicity, cell-based.
A short description of data set [2]: Cytotoxicity against human MT4 cells after 5 days by MTT assay. The class given is cell-based. A general note: Tetrazolium assays rely on reduction of a dye to a coloured formazan, in cell work by metabolically active cells.
Data set [3] can be described thus: Selectivity index, ratio of CC50 for human MT4 cells to EC50 for HIV1 3B. The class given is toxicity, cell-based. The note with it: read-out: Ratio CC50/EC50.
In data set [4] the test system is Human immunodeficiency virus 1. Kind of data set: Antiviral activity against drug-resistant HIV1 RES056 harboring reverse transcriptase K103N/Y181C double mutant infected in human MT-4 cells assessed as protection against virus-induced cytopathicity after 5 days by MTT assay. The class given is functional, organism-based. The note with it: Human immunodeficiency virus 1, RES056, MT4, 120 h. Background: Protection from cytopathic effect is a common read-out in antiviral testing.

Data set [5] relates to Human immunodeficiency virus 1. The experiment in a line: Antiviral activity against HIV1 3B infected in human MT-4 cells assessed as protection against virus-induced cytopathicity after 5 days by MTT assay. It is filed as functional, organism-based. The note with it: Human immunodeficiency virus 1, 3B, MT4, 120 h.
Data set [6] has as its target Human immunodeficiency virus type 1 reverse transcriptase (Human immunodeficiency virus 1, UniProt Q72547). The experiment in a line: Inhibition of recombinant HIV1 reverse transcriptase using poly rA:dT as template/primer after 1 hr by ELISA. (An ELISA detects its analyte on a solid surface through an enzyme-linked reagent.)

SMILES strings stand for the structures. Where a name gives a salt, the structure may show the parent alone.

A word on the CC50: it is the concentration giving 50% cytotoxicity. What is called EC50 is the concentration giving half of the maximal effect. Regarding `Cc1cc(C)c(Nc2cc(NC3CCN(Cc4ccc(S(N)(=O)=O)cc4)CC3)nc(Nc3ccc(C#N)cc3)n2)c(C)c1`, the results for the selectivity ratio in data set [1] and in data set [3] were less than 1 and 83, respectively. In data set [2], this compound displayed a CC50 at 120 h of 6.4 µM. Also, the EC50 in data set [4] is greater than 6.4 µM; in data set [5], 0.077 µM.

In the case of `Cc1cc(C)c(Oc2cc(NC3CCNCC3)nc(Nc3ccc(C#N)cc3)n2)c(C)c1`, the selectivity ratio is no more than 5 in data set [1] and 69 in data set [3]. In data set [2], this compound gave a CC50 at 120 h of 9.6 µM. Further, the EC50 was no less than 1.8 µM in data set [4] and 0.14 µM in data set [5].

Consider `Cc1cc(C#N)cc(C)c1Oc1cc(NC2CCNCC2)nc(Nc2ccc(C#N)cc2)n1`, for which the selectivity ratio in data set [1] was 4; in data set [3], 112. In data set [2], the CC50 at 120 h was determined as 4.2 µM. Also, the EC50 in data set [4] was 0.95 µM; in data set [5], 0.038 µM.

For the compound `Cc1cc(C)c(Oc2cc(NC3CCN(Cc4ccc(S(N)(=O)=O)cc4)CC3)nc(Nc3ccc(C#N)cc3)n2)c(C)c1`, the selectivity ratio was less than 1 in data set [1] and 61 in data set [3]. Besides, in data set [2], the CC50 at 120 h was determined as 11 µM. In addition, the EC50 in data set [4] is greater than 28 µM; in data set [5], 0.19 µM.

Consider `Cc1cc(C)c(Oc2cc(NC3CCN(Cc4ccc(S(C)(=O)=O)cc4)CC3)nc(Nc3ccc(C#N)cc3)n2)c(C)c1`, for which the values for the selectivity ratio in data set [1] and in data set [3] were no more than 8 and 934, respectively. The compound also showed a CC50 at 120 h in data set [2] of 124 µM. Moreover, the values for the EC50 in data set [4] and in data set [5] were no less than 16 µM and 0.13 µM, respectively.

Consider `Cc1cc(C)c(Oc2cc(NC3CCN(Cc4ccncc4)CC3)nc(Nc3ccc(C#N)cc3)n2)c(C)c1`, for which the selectivity ratio in data set [1] is less than 1; in data set [3] it was 44. The same compound gave a 50% cytotoxic concentration (CC50) at 120 h in data set [2] of 11 µM. Further, the EC50 in data set [4] is greater than 11 µM; in data set [5], 0.24 µM.

For `Cc1cc(C#N)cc(C)c1Oc1cc(NC2CCN(Cc3ccc(S(N)(=O)=O)cc3)CC2)nc(Nc2ccc(C#N)cc2)n1`, the selectivity ratio in data set [1] stood at 3; in data set [3] it was 93. In data set [2], this compound came in with a CC50 at 120 h of 12 µM. Also, the EC50 in data set [4] is 3.9 µM; in data set [5] it was 0.13 µM.

On to `Cc1cc(C#N)cc(C)c1Oc1cc(NC2CCN(Cc3ccc(S(C)(=O)=O)cc3)CC2)nc(Nc2ccc(C#N)cc2)n1`, for which the selectivity ratio in data set [1] was 1; in data set [3], greater than 3550. Moreover, the cytotoxic concentration (CC50) at 120 h in data set [2] is greater than 206 µM. Also, the EC50 in data set [4] was greater than 206 µM; in data set [5], 0.058 µM.

For orientation: IC50 means the concentration that inhibits the measured activity by half. With `Cc1cc(C#N)cc(C)c1Oc1cc(NC2CCN(Cc3ccncc3)CC2)nc(Nc2ccc(C#N)cc2)n1`, the selectivity ratio turned out to be 22 in data set [1] and 2140 in data set [3]. Moreover, the concentration for half-maximal inhibition (IC50) in data set [6] was 33 µM. In data set [2], the CC50 at 120 h came to 100 µM. Also, the values for the EC50 in data set [4] and in data set [5] were 4.6 µM and 0.047 µM, respectively.

For `CC(C)Nc1cccnc1N1CCN(C(=O)c2cc3cc(NS(C)(=O)=O)ccc3[nH]2)CC1` [DELAVIRDINE MESYLATE], the selectivity ratio is 1 in data set [1] and greater than 227 in data set [3]. The compound also gave a CC50 at 120 h in data set [2] greater than 36 µM. Also, the EC50 was greater than 36 µM in data set [4] and 0.13 µM in data set [5].

On to `O=C1Nc2ccc(Cl)cc2[C@@](C#CC2CC2)(C(F)(F)F)O1` [EFAVIRENZ], for which the CC50 at 120 h in data set [2] is greater than 6.3 µM. Also, the EC50 in data set [5] is 0.007 µM.

Take `Cc1ccnc2c1NC(=O)c1cccnc1N2C1CC1` [NEVIRAPINE]: the CC50 at 120 h in data set [2] was greater than 15 µM. The figures for the EC50 in data set [4] and in data set [5] were 2.5 µM and 0.17 µM, respectively.
